Consider three compounds from article PMC8020424, “Characterization of D-xylose reductase, XyrB, from Aspergillus niger” (Biotechnology Reports, 2021).

Like-named read-outs stand apart in the source and are kept apart here.

The experiment has as its system T1, XyrB.
T1 construct: full-length intron-free codon-optimized gene in pET-28a(+), E. coli BL21(DE3)pLysS, HisTrap purified; AKR motif 22-277
The experiment can be described thus: NADPH consumption at […] nm, Michaelis-Menten fit. It is filed as biochemical, Aspergillus niger. The conditions noted are these: 0.2 mM NADPH, PBS pH 7.0, 25 °C.

Turning to `OC1OC[C@@H](O)[C@H](O)[C@H]1O` (stereo partly drawn) [D-xylose], under “read-out: D-xylose / Km”, the Km turned out to be 3.3 mM.

Regarding `OC1OC[C@H](O)[C@H](O)[C@H]1O` (stereo partly drawn) [L-arabinose], the Km (read-out: Km) was 9.9 mM.

Consider `OC[C@H]1OC(O)[C@H](O)[C@@H](O)[C@H]1O` (stereo partly drawn) [D-galactose], for which, for the setting “read-out: Km”, the Km was 12.5 mM.
